For this experiment, the target named is T1, full length β-catenin (aa 1-781) (Homo sapiens, UniProt P35222).
T1 sequence (P35222 1-781): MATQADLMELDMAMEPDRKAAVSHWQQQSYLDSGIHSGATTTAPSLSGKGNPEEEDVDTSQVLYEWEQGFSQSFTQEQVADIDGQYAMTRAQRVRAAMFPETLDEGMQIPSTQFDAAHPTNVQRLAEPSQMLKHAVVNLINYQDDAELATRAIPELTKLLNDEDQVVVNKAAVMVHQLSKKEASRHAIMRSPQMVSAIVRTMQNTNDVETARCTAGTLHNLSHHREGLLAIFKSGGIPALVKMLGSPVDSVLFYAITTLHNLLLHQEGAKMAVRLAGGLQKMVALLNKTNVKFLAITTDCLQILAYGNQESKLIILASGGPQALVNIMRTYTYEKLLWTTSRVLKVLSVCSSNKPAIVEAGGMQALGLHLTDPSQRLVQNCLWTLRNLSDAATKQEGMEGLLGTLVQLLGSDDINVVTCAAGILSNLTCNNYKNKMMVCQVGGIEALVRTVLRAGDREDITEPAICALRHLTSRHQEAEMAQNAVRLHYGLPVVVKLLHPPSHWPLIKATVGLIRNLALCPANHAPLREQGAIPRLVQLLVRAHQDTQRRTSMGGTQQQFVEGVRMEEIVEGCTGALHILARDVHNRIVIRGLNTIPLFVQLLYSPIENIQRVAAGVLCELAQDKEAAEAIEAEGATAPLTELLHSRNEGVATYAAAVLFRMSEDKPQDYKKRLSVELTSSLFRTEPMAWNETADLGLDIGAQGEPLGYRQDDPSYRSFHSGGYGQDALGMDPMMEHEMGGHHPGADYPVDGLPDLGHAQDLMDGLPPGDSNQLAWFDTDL
Kind of experiment: Direct fluorescence polarization. Type of experiment: binding. (In general: Polarisation of emitted light reports the rotation of a fluorescent probe.)

Non-standard residues stand in square brackets, D forms with d. Residues, ends and D or L forms follow the SMILES beside them. *: point of attachment. FITC = O=C1OC2(c3ccc(O)cc3Oc3cc(O)ccc32)c2ccc(NC(=S)*)cc21; Nle = CCCC[C@H](N)C(=O)O; AEEA = NCCOCCOCC(=O)O; βAla = NCCC(=O)O

By Kd is commonly meant the free concentration of one partner at which half of the binding sites on the other are occupied at equilibrium, for simple one-to-one binding. In turn, `CCCC[C@H](NC(=O)[C@H](CC(C)C)NC(=O)[C@@H](NC(=O)[C@@H]1CCCN1C(=O)[C@H](C)NC(=O)[C@@H](NC(=O)[C@H](CC(=O)O)NC(=O)[C@H](CC(N)=O)NC(=O)[C@H](CCCNC(=N)N)NC(=O)[C@@H](NC(=O)[C@@H](NC(=O)CCNC(=O)CCNC(=O)[C@H](Cc1ccccc1)NC(=O)[C@@H](NC(=O)[C@H](CC(C)C)NC(=O)[C@H](CC(C)C)NC(=O)[C@H](CO)NC(=O)[C@H](CC(=O)O)NC(=O)COCCOCCNC(=S)Nc1ccc2c(c1)C(=O)OC21c2ccc(O)cc2Oc2cc(O)ccc21)C(C)C)C(C)C)[C@@H](C)O)C(C)C)[C@@H](C)O)C(=O)N[C@@H](CO)C(=O)N[C@H](C(=O)N1CCC[C@H]1C(=O)N[C@@H](CCC(N)=O)C(N)=O)C(C)C` [peptide 9] ({FITC-AEEA}-DSLLVF[βAla][βAla]VTRNDVAPTL[Nle]SVPQ-NH2) gave a Kd of more than 5 µM.
The figure for `CC(C)C[C@H](NC(=O)[C@H](CO)NC(=O)[C@H](CC(=O)O)NC(=O)COCCOCCNC(=S)Nc1ccc2c(c1)C(=O)OC21c2ccc(O)cc2Oc2cc(O)ccc21)C(=O)N[C@@H](CC(C)C)C(=O)N[C@H](C(=O)N[C@@H](Cc1ccccc1)C(=O)NCCC(=O)NCCC(=O)N[C@H](C(=O)N[C@H](C(=O)N[C@@H](CCCNC(=N)N)C(=O)N[C@@H](CC(N)=O)C(=O)N[C@@H](CC(=O)O)C(=O)N[C@H](C(N)=O)C(C)C)[C@@H](C)O)C(C)C)C(C)C` [peptide 11] ({FITC-AEEA}-DSLLVF[βAla][βAla]VTRNDV-NH2) is more than 5 µM.

For the origin of these results see paper PMC8252567 (Angewandte Chemie (International Ed. in English), 2021).
